The source of these data is ChEMBL document CHEMBL3045406, “Enantioselective Relieving Activity of α-Methylbenzylphenylureas toward Bensulfuron-methyl Injury to Rice (Oryza sativa)” (Biosci Biotechnol Biochem, 1999).

In series [1] the test system is Oryza sativa. Description: Effect on Oryza sativa (rice) assessed as growth rate at 10 uM relative to control. The format is organism-based. The conditions noted are these: in vivo.
Series [2] deals with Oryza sativa. Briefly: Safener indices, ratio of compound effect of Oryza sativa (rice) growth rate to relieving activity against bensulfuron-methyl induced injury to Oryza sativa growth rate at 10 uM.
The subject of series [3] is Oryza sativa. Description: Safener indices, ratio of compound effect of Oryza sativa (rice) growth rate to relieving activity against bensulfuron-methyl induced injury to Oryza sativa growth rate at 1 uM.
Series [4] in a line: Hydrophobicity, log K of the compound. The format is physicochemical. Conditions: octanol/water.
In series [5] the test system is Oryza sativa. Briefly: Safener indices, ratio of compound effect of Oryza sativa (rice) growth rate to relieving activity against bensulfuron-methyl induced injury to Oryza sativa growth rate at 0.1 uM.
In series [6] the test system is Oryza sativa. Briefly: Relieving activity against bensulfuron-methyl induced injury to Oryza sativa (rice) assessed as growth rate at 10 uM (Rbv = 46 to 53%). The format is functional.
Series [7] deals with Oryza sativa. Description: Relieving activity against bensulfuron-methyl induced injury to Oryza sativa (rice) assessed as growth rate at 1 uM (Rbv = 46 to 53%). The class given is functional.
Series [8] relates to Oryza sativa. Briefly: Effect on Oryza sativa (rice) assessed as growth rate at 0.1 uM relative to control. The format is organism-based. The conditions noted are these: in vivo.
Series [9] concerns Oryza sativa. Description: Effect on Oryza sativa (rice) assessed as growth rate at 1 uM relative to control. The format is organism-based. The conditions noted are these: in vivo.
In series [10] the test system is Oryza sativa. Description: Relieving activity against bensulfuron-methyl induced injury to Oryza sativa (rice) assessed as growth rate at 0.1 uM (Rbv = 46 to 53%). The format is functional.

Molecules are shown by their SMILES.

For `C[C@H](NC(=O)Nc1ccc(F)cc1F)c1ccccc1`, the Activity was 99% in the series with Oryza sativa [1]; 93% with Oryza sativa [6]; 79% in the series with Oryza sativa [7]; 101% in the series with Oryza sativa [8]; 100% in the series with Oryza sativa [9]; 65% in the series on Oryza sativa [10]. The Ratio is on record as 85 with Oryza sativa [2], 56 in the series on Oryza sativa [3] and 28 in the series on Oryza sativa [5]. Further, the “log K” value in [4] was determined as 0.394.

With `C[C@@H](NC(=O)Nc1cc(F)ccc1F)c1ccccc1`, the Activity was determined as 92% in the series on Oryza sativa [1]; 77% with Oryza sativa [6]; 67% with Oryza sativa [7]; 100% in the series on Oryza sativa [8]; 100% in the series on Oryza sativa [9]; 54% in the series on Oryza sativa [10]. Besides, the Ratio in the series on Oryza sativa [2] amounted to 57; in the series with Oryza sativa [3], 34; in the series with Oryza sativa [5], 7. In series [4], the “log K” value turned out to be 0.464.

As for `C[C@H](NC(=O)Nc1cc(F)ccc1F)c1ccccc1`, the Activity came to 99% with Oryza sativa [1]; 96% in the series with Oryza sativa [6]; 89% in the series on Oryza sativa [7]; 100% with Oryza sativa [8]; 98% in the series on Oryza sativa [9]; 74% in the series on Oryza sativa [10]. Moreover, the Ratio is 92 in the series with Oryza sativa [2], 77 in the series with Oryza sativa [3] and 47 in the series on Oryza sativa [5]. For the same molecule, the “log K” value in series [4] is 0.464.

On to `C[C@@H](NC(=O)Nc1c(F)cccc1F)c1ccccc1`, for which the Activity with Oryza sativa [1] was determined as 98%; in the series with Oryza sativa [6] it was 71%; with Oryza sativa [7] it was 54%; with Oryza sativa [8], 100%; with Oryza sativa [9], 100%; in the series with Oryza sativa [10], 51%. For the same molecule, the Ratio in the series on Oryza sativa [2] was 42; in the series on Oryza sativa [3], 8; with Oryza sativa [5], 2. In addition, the “log K” value in [4] stood at 0.238.

As to `C[C@H](NC(=O)Nc1c(F)cccc1F)c1ccccc1`, the Activity was 99% with Oryza sativa [1]; 81% in the series on Oryza sativa [6]; 61% in the series on Oryza sativa [7]; 100% with Oryza sativa [8]; 99% in the series on Oryza sativa [9]; 53% in the series on Oryza sativa [10]. The Ratio amounted to 62 with Oryza sativa [2], 22 with Oryza sativa [3] and 6 in the series on Oryza sativa [5]. Moreover, in series [4], the “log K” value was 0.238.

Turning to `C[C@@H](NC(=O)Nc1ccc(F)c(F)c1)c1ccccc1`, the Activity is 96% in the series on Oryza sativa [1]; 73% in the series with Oryza sativa [6]; 60% in the series with Oryza sativa [7]; 99% in the series with Oryza sativa [8]; 99% in the series with Oryza sativa [9]; 52% in the series with Oryza sativa [10]. In addition, the Ratio in the series with Oryza sativa [2] came to 47; in the series on Oryza sativa [3] it was 21; with Oryza sativa [5], 4. Also, in series [4], the “log K” value amounted to 0.398.

`C[C@H](NC(=O)Nc1ccc(F)c(F)c1)c1ccccc1`: the Activity with Oryza sativa [1] is reported as 98%; in the series on Oryza sativa [6], 82%; with Oryza sativa [7] it was 70%; in the series on Oryza sativa [8], 99%; in the series on Oryza sativa [9], 100%; in the series on Oryza sativa [10] it was 57%. Moreover, the Ratio in the series with Oryza sativa [2] was found to be 64; with Oryza sativa [3], 41; with Oryza sativa [5], 14. Besides, the “log K” value in series [4] worked out at 0.398.

As for `C[C@@H](NC(=O)Nc1cc(F)cc(F)c1)c1ccccc1`, the Activity in the series with Oryza sativa [1] turned out to be 96%; with Oryza sativa [6], 65%; with Oryza sativa [7] it was 59%; with Oryza sativa [8] it was 98%; in the series with Oryza sativa [9] it was 98%; with Oryza sativa [10] it was 54%. For the same molecule, the Ratio in the series with Oryza sativa [2] was found to be 33; with Oryza sativa [3], 20; in the series with Oryza sativa [5] it was 10. Moreover, in [4], the “log K” value was determined as 0.452.

Take `C[C@H](NC(=O)Nc1cc(F)cc(F)c1)c1ccccc1`: the Activity is 99% in the series on Oryza sativa [1]; 93% in the series on Oryza sativa [6]; 79% in the series with Oryza sativa [7]; 99% with Oryza sativa [8]; 99% in the series on Oryza sativa [9]; 64% in the series with Oryza sativa [10]. Besides, the Ratio in the series with Oryza sativa [2] came out at 85; with Oryza sativa [3] it was 58; in the series with Oryza sativa [5], 30. Also, the “log K” value in series [4] came out at 0.452.

As for `C[C@@H](NC(=O)Nc1cccc(Cl)c1Cl)c1ccccc1`, the Activity with Oryza sativa [1] is on record as 99%; in the series on Oryza sativa [6] it was 89%; with Oryza sativa [7], 80%; in the series on Oryza sativa [8] it was 100%; in the series with Oryza sativa [9] it was 100%; in the series with Oryza sativa [10] it was 59%. The results for the Ratio in the series with Oryza sativa [2], in the series on Oryza sativa [3] and in the series on Oryza sativa [5] were 78, 58 and 14, respectively. For the same molecule, the “log K” value in series [4] turned out to be 0.646.

Consider `C[C@H](NC(=O)Nc1cccc(Cl)c1Cl)c1ccccc1`, for which the Activity in the series on Oryza sativa [1] is given as 101%; in the series on Oryza sativa [6], 98%; in the series with Oryza sativa [7], 96%; with Oryza sativa [8], 100%; in the series with Oryza sativa [9], 100%; with Oryza sativa [10], 89%. For the same molecule, the values for the Ratio in the series with Oryza sativa [2], with Oryza sativa [3] and in the series on Oryza sativa [5] were 96, 91 and 76, respectively. Moreover, the “log K” value in series [4] turned out to be 0.646.

Turning to `C[C@@H](NC(=O)Nc1cc(C(F)(F)F)cc(C(F)(F)F)c1)c1ccccc1`, the Activity in the series on Oryza sativa [1] was 53%; in the series on Oryza sativa [6] it was 49%; in the series on Oryza sativa [7], 65%; in the series on Oryza sativa [8], 100%; with Oryza sativa [9] it was 93%; in the series on Oryza sativa [10] it was 56%. Also, the values for the Ratio in the series with Oryza sativa [2], with Oryza sativa [3] and in the series on Oryza sativa [5] were 30, 34 and 10, respectively. The “log K” value in series [4] came to 0.831.

Turning to `C[C@H](NC(=O)Nc1cc(C(F)(F)F)cc(C(F)(F)F)c1)c1ccccc1`, the Activity amounted to 86% with Oryza sativa [1]; 69% with Oryza sativa [6]; 65% in the series on Oryza sativa [7]; 101% in the series with Oryza sativa [8]; 95% in the series on Oryza sativa [9]; 57% with Oryza sativa [10]. Also, the values for the Ratio in the series with Oryza sativa [2], in the series on Oryza sativa [3] and with Oryza sativa [5] were 44, 33 and 13, respectively. Also, the “log K” value in series [4] is reported as 0.831.

Consider `C[C@H](NC(=O)Nc1cc(C(C)(C)C)ccc1C(C)(C)C)c1ccccc1`, for which the Activity in the series on Oryza sativa [1] was 97%; in the series on Oryza sativa [6], 74%; with Oryza sativa [7] it was 59%; in the series on Oryza sativa [8], 98%; in the series with Oryza sativa [9], 98%; in the series on Oryza sativa [10] it was 56%. Further, the values for the Ratio in the series on Oryza sativa [2], in the series with Oryza sativa [3] and with Oryza sativa [5] were 46, 15 and 8, respectively. The “log K” value in series [4] worked out at 1.001.

On to `C[C@@H](NC(=O)Nc1cccc(F)c1F)c1ccccc1`, for which the Activity is given as 90% with Oryza sativa [1]; 85% in the series with Oryza sativa [6]; 66% with Oryza sativa [7]; 100% in the series with Oryza sativa [8]; 99% in the series with Oryza sativa [9]; 53% in the series with Oryza sativa [10]. Besides, the values for the Ratio in the series on Oryza sativa [2], in the series on Oryza sativa [3] and with Oryza sativa [5] were 73, 31 and 5, respectively. For the same molecule, in [4], the “log K” value came to 0.435.

In the case of `C[C@H](NC(=O)Nc1cccc(F)c1F)c1ccccc1`, the Activity in the series with Oryza sativa [1] is 100%; in the series with Oryza sativa [6], 93%; in the series on Oryza sativa [7] it was 88%; with Oryza sativa [8] it was 100%; in the series on Oryza sativa [9], 100%; in the series on Oryza sativa [10] it was 68%. The Ratio is recorded as 87 in the series on Oryza sativa [2], 75 in the series on Oryza sativa [3] and 36 in the series with Oryza sativa [5]. The “log K” value in [4] is recorded as 0.435.

Take `C[C@@H](NC(=O)Nc1ccc(F)cc1F)c1ccccc1`: the Activity in the series with Oryza sativa [1] is recorded as 93%; in the series on Oryza sativa [6], 82%; in the series with Oryza sativa [7], 61%; in the series with Oryza sativa [8] it was 100%; in the series on Oryza sativa [9] it was 100%; in the series on Oryza sativa [10], 53%. The Ratio with Oryza sativa [2] is reported as 66; with Oryza sativa [3], 21; with Oryza sativa [5], 4. Moreover, in [4], the “log K” value is reported as 0.394.

On to `C[C@@H](NC(=O)Nc1ccc(Cl)cc1Cl)c1ccccc1`, for which the Activity in the series with Oryza sativa [1] is reported as 100%; in the series on Oryza sativa [6], 75%; in the series with Oryza sativa [7] it was 65%; in the series with Oryza sativa [8], 101%; with Oryza sativa [9], 99%; with Oryza sativa [10], 61%. The Ratio in the series on Oryza sativa [2] was 47; in the series on Oryza sativa [3], 29; in the series with Oryza sativa [5] it was 20. Besides, the “log K” value in series [4] is 0.688.

In the case of `C[C@H](NC(=O)Nc1ccc(Cl)cc1Cl)c1ccccc1`, the Activity with Oryza sativa [1] came to 99%; with Oryza sativa [6] it was 87%; with Oryza sativa [7] it was 80%; in the series on Oryza sativa [8], 100%; with Oryza sativa [9], 100%; in the series on Oryza sativa [10], 68%. Further, the Ratio is reported as 73 in the series on Oryza sativa [2], 59 in the series on Oryza sativa [3] and 33 with Oryza sativa [5]. In addition, in series [4], the “log K” value is 0.688.

For the molecule `C[C@@H](NC(=O)Nc1cc(Cl)ccc1Cl)c1ccccc1`, the Activity with Oryza sativa [1] is given as 101%; in the series with Oryza sativa [6] it was 77%; in the series on Oryza sativa [7] it was 68%; in the series with Oryza sativa [8], 99%; with Oryza sativa [9], 100%; in the series on Oryza sativa [10] it was 64%. Further, the Ratio in the series with Oryza sativa [2] amounted to 52; in the series with Oryza sativa [3] it was 37; in the series on Oryza sativa [5], 26. Besides, the “log K” value in series [4] is given as 0.704.
